Data as given in ChEMBL document CHEMBL1125876, “Conformationally defined neurotransmitter analogues. Selective inhibition of glutamate uptake by one pyrrolidine-2,4-dicarboxylate diastereomer” (1991).

Assays:
Parameters in all cases: scale not given: the % may be the effect or the level left
Rattus norvegicus = species on record: Rattus norvegicus; experiment: Comparative inhibition of L-Glutamate uptake at the concentration of 5 uM of [3H]-L- glutamate radioligand; type: functional
[1] = molecular target: T1, Glutamate NMDA receptor (Rattus norvegicus) (UniProt P35439+Q00959+Q00960+Q00961+Q62645+Q8VHN2+Q9R1M7); experiment: Compound tested for its ability to inhibit [3H]- -L-Glu binding to N-methyl-D-aspartate glutamate receptor at the concentration of 100 uM; type: protein-complex assay
[2] = molecular target: Glutamate receptor ionotropic, kainate 2 (Rattus norvegicus) (UniProt P42260); experiment: Compound tested for its ability to inhibit [3H]- KA binding to ionotropic glutamate receptor kainate at the concentration of 100 uM
Chain of Glutamate receptor ionotropic, kainate 2 (Rattus norvegicus) (P42260 whole entry): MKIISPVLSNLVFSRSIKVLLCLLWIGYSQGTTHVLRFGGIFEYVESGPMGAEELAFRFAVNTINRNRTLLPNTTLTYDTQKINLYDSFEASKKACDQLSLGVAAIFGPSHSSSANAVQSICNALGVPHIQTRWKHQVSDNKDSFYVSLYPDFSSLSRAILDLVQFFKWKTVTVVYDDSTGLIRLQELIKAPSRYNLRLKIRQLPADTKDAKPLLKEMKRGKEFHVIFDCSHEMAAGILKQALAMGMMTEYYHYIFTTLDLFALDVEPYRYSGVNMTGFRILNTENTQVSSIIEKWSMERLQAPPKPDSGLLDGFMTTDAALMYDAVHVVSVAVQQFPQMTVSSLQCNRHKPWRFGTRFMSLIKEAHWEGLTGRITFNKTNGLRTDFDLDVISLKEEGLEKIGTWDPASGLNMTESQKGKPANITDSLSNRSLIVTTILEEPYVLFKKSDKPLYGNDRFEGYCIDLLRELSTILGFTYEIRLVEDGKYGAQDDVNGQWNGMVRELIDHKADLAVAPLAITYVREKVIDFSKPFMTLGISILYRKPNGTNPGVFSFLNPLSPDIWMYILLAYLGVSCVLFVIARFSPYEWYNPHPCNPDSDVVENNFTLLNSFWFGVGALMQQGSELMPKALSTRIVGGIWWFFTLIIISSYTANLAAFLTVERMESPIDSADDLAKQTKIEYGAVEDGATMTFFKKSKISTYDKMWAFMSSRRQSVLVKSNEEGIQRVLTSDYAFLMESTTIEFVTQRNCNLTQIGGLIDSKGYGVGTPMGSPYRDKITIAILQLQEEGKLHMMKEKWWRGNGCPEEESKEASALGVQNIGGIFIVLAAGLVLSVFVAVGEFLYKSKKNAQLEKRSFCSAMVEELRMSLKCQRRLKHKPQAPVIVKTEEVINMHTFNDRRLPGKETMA

[3] = molecular target: T1, Glutamate NMDA receptor (Rattus norvegicus); experiment: Compound tested for its ability to inhibit [3H]- -L-Glu binding to N-methyl-D-aspartate glutamate receptor at the concentration of 20 uM; type: protein-complex assay

Control [1] [%]	Control [2] [%]	Control [3] [%]	SMILES	Control (Rattus norvegicus) [%]
–	–	–	N[C@H](CC(=O)O)C(=O)O [D-ASPARTATE]	58
87	102	–	O=C(O)[C@H]1CN[C@H](C(=O)O)C1	45
95	92	–	O=C(O)[C@@H]1CN[C@@H](C(=O)O)C1	–
–	–	–	CC(C)[C@H]1CN[C@H](C(=O)O)[C@H]1CC(=O)O [DIHYDROKAINATE]	93
38	101	76	O=C(O)[C@H]1CN[C@@H](C(=O)O)C1	–
89	100	–	O=C(O)[C@@H]1CN[C@H](C(=O)O)C1	–
